According to patent US12661345B2, “Compositions for the treatment of hypertension” (The George Institute for Global Health, priority 2017, dated 2026):

Test system: participants with migraine
Experiment: Safety: serious adverse events and adverse events of special interest in the 3×3 factorial trial
[1] = Anytime between Week 0 to Week 12, % of participants
[2] = Anytime between Week 0 to Week 12, n/N participants
[3] = Randomization, % of participants
[4] = Randomization, n/N participants

Text: Tolerability: • a. Difference between groups in potentially related side-effects (dizziness, blurred vision, syncope/collapse/fall, ankle edema, skin rash, itching, gout, hyperkalemia, hypokalemia, hyponatremia, myalgia, insomnia, nightmares, rebound hypertension) • b. Difference between groups in participant withdrawals from treatment • 2. Safety: Percentage with any severe adverse event (SAE) • 3.
All participants reported SAEs and adverse events of special interest (AESI) from the time of informed consent until the end of the follow-up period and reported in the case report. AESIs included: • Dizziness • Hypotension • Pedal Edema • Headache • Muscle cramps • Bradycardia • Flushing • Hypersensitivity reactions (skin rashes, itching) • Gastrointestinal complaints • Myalgia • Syncope/Collapse/Fall • Gout • Insomnia • Nightmares • Rebound hypertension • Chest tightness/pain • Tremor/shaking • Irregular heartbeat/tachycardia Statistical Methods Statistical & Analytical Plans

`CC(C)NCC(O)COc1cccc2ccccc12` (stereo not shown) [Propranolol, propranolol] was tested, and the “Subjects with any serious adverse event (SAE) in 12 weeks (n/N)” value (12 weeks) was 0/10, the “Subjects with any serious adverse event (SAE) in 12 weeks (percent)” value (12 weeks) was 0.0% and the “Any SAEs” value [1] was “(0.0%)”. The Bradycardia [1] was “(10.0%)”, the Falls [1] was “(0.0%)” and the Flushing [1] was “(0.0%)”. For the same compound, the Gastrointestinal complaints [1] was “(30.0%)”, the Gout [1] was “(0.0%)” and the Headache [1] was “(90.0%)”. For the same compound, the Insomnia [1] was “(40.0%)”, the Muscle cramps [1] was “(30.0%)” and the Myalgia [1] was “(20.0%)”. The Nightmares [1] was “(10.0%)”, the Pedal edema [1] was “(0.0%)” and the Syncope [1] was “(10.0%)”. The “Any SAEs” value [2] was 0/10, the Bradycardia [2] was 1/10 and the Falls [2] was 0/10. The Flushing [2] was 0/10, the Gastrointestinal complaints [2] was 3/10 and the Gout [2] was 0/10. The Headache [2] was 9/10, the Insomnia [2] was 4/10 and the Muscle cramps [2] was 3/10. The Myalgia [2] was 2/10, the Nightmares [2] was 1/10 and the Pedal edema [2] was 0/10. The Syncope [2] was 1/10, the “Any SAEs since the last visit?” value [3] was “(0.0%)” and the Bradycardia [3] was “(0.0%)”. The Falls [3] was “(0.0%)”, the Flushing [3] was “(10.0%)” and the Gastrointestinal complaints [3] was “(0.0%)”. For the same compound, the Gout [3] was “(0.0%)”, the Headache [3] was “(100.0%)” and the Insomnia [3] was “(0.0%)”. For the same compound, the Muscle cramps [3] was “(0.0%)”, the Myalgia [3] was “(0.0%)” and the Nightmares [3] was “(0.0%)”. For the same compound, the Pedal edema [3] was “(0.0%)”, the Syncope [3] was “(0.0%)” and the “Any SAEs since the last visit?” value [4] was 0/10. The Bradycardia [4] was 0/10, the Falls [4] was 0/10 and the Flushing [4] was 1/10. The Gastrointestinal complaints [4] was 0/10, the Gout [4] was 0/10 and the Headache [4] was 10/10. The Insomnia [4] was 0/10, the Muscle cramps [4] was 0/10 and the Myalgia [4] was 0/10. For the same compound, the Nightmares [4] was 0/10, the Pedal edema [4] was 0/10 and the Syncope [4] was 0/10. For the same compound, the “Any SAEs since the last visit?” value (Week 4, % of participants) was “(0.0%)”, the Bradycardia (Week 4, % of participants) was “(0.0%)” and the Falls (Week 4, % of participants) was “(0.0%)”. For the same compound, the Flushing (Week 4, % of participants) was “(0.0%)”, the Gastrointestinal complaints (Week 4, % of participants) was “(20.0%)” and the Gout (Week 4, % of participants) was “(0.0%)”. The Headache (Week 4, % of participants) was “(90.0%)”, the Insomnia (Week 4, % of participants) was “(20.0%)” and the Muscle cramps (Week 4, % of participants) was “(10.0%)”. The Myalgia (Week 4, % of participants) was “(10.0%)”, the Nightmares (Week 4, % of participants) was “(0.0%)” and the Pedal edema (Week 4, % of participants) was “(0.0%)”. The Syncope (Week 4, % of participants) was “(0.0%)”, the “Any SAEs since the last visit?” value (Week 4, n/N participants) was 0/10 and the Bradycardia (Week 4, n/N participants) was 0/10. For the same compound, the Falls (Week 4, n/N participants) was 0/10, the Flushing (Week 4, n/N participants) was 0/10 and the Gastrointestinal complaints (Week 4, n/N participants) was 2/10. For the same compound, the Gout (Week 4, n/N participants) was 0/10, the Headache (Week 4, n/N participants) was 9/10 and the Insomnia (Week 4, n/N participants) was 2/10. For the same compound, the Muscle cramps (Week 4, n/N participants) was 1/10, the Myalgia (Week 4, n/N participants) was 1/10 and the Nightmares (Week 4, n/N participants) was 0/10. For the same compound, the Pedal edema (Week 4, n/N participants) was 0/10, the Syncope (Week 4, n/N participants) was 0/10 and the “Any SAEs since the last visit?” value (Week 8, % of participants) was “(0.0%)”. For the same compound, the Bradycardia (Week 8, % of participants) was “(0.0%)”, the Falls (Week 8, % of participants) was “(0.0%)” and the Flushing (Week 8, % of participants) was “(0.0%)”. For the same compound, the Gastrointestinal complaints (Week 8, % of participants) was “(0.0%)”, the Gout (Week 8, % of participants) was “(0.0%)” and the Headache (Week 8, % of participants) was “(80.0%)”. The Insomnia (Week 8, % of participants) was “(30.0%)”, the Muscle cramps (Week 8, % of participants) was “(0.0%)” and the Myalgia (Week 8, % of participants) was “(10.0%)”. The Nightmares (Week 8, % of participants) was “(0.0%)”, the Pedal edema (Week 8, % of participants) was “(0.0%)” and the Syncope (Week 8, % of participants) was “(0.0%)”. The “Any SAEs since the last visit?” value (Week 8, n/N participants) was 0/10, the Bradycardia (Week 8, n/N participants) was 0/10 and the Falls (Week 8, n/N participants) was 0/10. For the same compound, the Flushing (Week 8, n/N participants) was 0/10, the Gastrointestinal complaints (Week 8, n/N participants) was 0/10 and the Gout (Week 8, n/N participants) was 0/10. For the same compound, the Headache (Week 8, n/N participants) was 8/10, the Insomnia (Week 8, n/N participants) was 3/10 and the Muscle cramps (Week 8, n/N participants) was 0/10. For the same compound, the Myalgia (Week 8, n/N participants) was 1/10, the Nightmares (Week 8, n/N participants) was 0/10 and the Pedal edema (Week 8, n/N participants) was 0/10. For the same compound, the Syncope (Week 8, n/N participants) was 0/10, the “Any SAEs since the last visit?” value (Week 12, % of participants) was “(0.0%)” and the Bradycardia (Week 12, % of participants) was “(10.0%)”. The Falls (Week 12, % of participants) was “(0.0%)”, the Flushing (Week 12, % of participants) was “(0.0%)” and the Gastrointestinal complaints (Week 12, % of participants) was “(10.0%)”. For the same compound, the Gout (Week 12, % of participants) was “(0.0%)”, the Headache (Week 12, % of participants) was “(80.0%)” and the Insomnia (Week 12, % of participants) was “(20.0%)”. The Muscle cramps (Week 12, % of participants) was “(20.0%)”, the Myalgia (Week 12, % of participants) was “(0.0%)” and the Nightmares (Week 12, % of participants) was “(10.0%)”. The Pedal edema (Week 12, % of participants) was “(0.0%)”, the Syncope (Week 12, % of participants) was “(10.0%)” and the “Any SAEs since the last visit?” value (Week 12, n/N participants) was 0/10. For the same compound, the Bradycardia (Week 12, n/N participants) was 1/10, the Falls (Week 12, n/N participants) was 0/10 and the Flushing (Week 12, n/N participants) was 0/10. The Gastrointestinal complaints (Week 12, n/N participants) was 1/10, the Gout (Week 12, n/N participants) was 0/10 and the Headache (Week 12, n/N participants) was 8/10. For the same compound, the Insomnia (Week 12, n/N participants) was 2/10, the Muscle cramps (Week 12, n/N participants) was 2/10 and the Myalgia (Week 12, n/N participants) was 0/10. For the same compound, the Nightmares (Week 12, n/N participants) was 1/10, the Pedal edema (Week 12, n/N participants) was 0/10 and the Syncope (Week 12, n/N participants) was 1/10. The “Any SAEs since the last visit?” value (Week 13, % of participants) was “(0.0%)”, the Bradycardia (Week 13, % of participants) was “(0.0%)” and the Falls (Week 13, % of participants) was “(0.0%)”. For the same compound, the Flushing (Week 13, % of participants) was “(0.0%)”, the Gastrointestinal complaints (Week 13, % of participants) was “(20.0%)” and the Gout (Week 13, % of participants) was “(0.0%)”. For the same compound, the Headache (Week 13, % of participants) was “(90.0%)”, the Insomnia (Week 13, % of participants) was “(0.0%)” and the Muscle cramps (Week 13, % of participants) was “(20.0%)”. The Myalgia (Week 13, % of participants) was “(20.0%)”, the Nightmares (Week 13, % of participants) was “(0.0%)” and the Pedal edema (Week 13, % of participants) was “(10.0%)”. For the same compound, the Rebound hypertension (Week 13, % of participants) was “(0.0%)”, the Syncope (Week 13, % of participants) was “(0.0%)” and the “Any SAEs since the last visit?” value (Week 13, n/N participants) was 0/10. For the same compound, the Bradycardia (Week 13, n/N participants) was 0/10, the Falls (Week 13, n/N participants) was 0/10 and the Flushing (Week 13, n/N participants) was 0/10. The Gastrointestinal complaints (Week 13, n/N participants) was 2/10, the Gout (Week 13, n/N participants) was 0/10 and the Headache (Week 13, n/N participants) was 9/10. The Insomnia (Week 13, n/N participants) was 0/10, the Muscle cramps (Week 13, n/N participants) was 2/10 and the Myalgia (Week 13, n/N participants) was 2/10. The Nightmares (Week 13, n/N participants) was 0/10, the Pedal edema (Week 13, n/N participants) was 1/10 and the Rebound hypertension (Week 13, n/N participants) was 0/10. For the same compound, the Syncope (Week 13, n/N participants) was 0/10, the “Any SAEs since the last visit?” value (Week 16, % of participants) was “(0.0%)” and the Bradycardia (Week 16, % of participants) was “(0.0%)”. For the same compound, the Falls (Week 16, % of participants) was “(0.0%)”, the Flushing (Week 16, % of participants) was “(0.0%)” and the Gastrointestinal complaints (Week 16, % of participants) was “(0.0%)”. The Gout (Week 16, % of participants) was “(0.0%)”, the Headache (Week 16, % of participants) was “(100.0%)” and the Insomnia (Week 16, % of participants) was “(0.0%)”. For the same compound, the Irregular heartbeat/tachycardia (Week 16, % of participants) was “(10.0%)”, the Muscle cramps (Week 16, % of participants) was “(10.0%)” and the Myalgia (Week 16, % of participants) was “(0.0%)”. For the same compound, the Nightmares (Week 16, % of participants) was “(0.0%)”, the Pedal edema (Week 16, % of participants) was “(0.0%)” and the Rebound hypertension (Week 16, % of participants) was “(20.0%)”. The Syncope (Week 16, % of participants) was “(0.0%)”, the “Any SAEs since the last visit?” value (Week 16, n/N participants) was 0/10 and the Bradycardia (Week 16, n/N participants) was 0/10. The Falls (Week 16, n/N participants) was 0/10, the Flushing (Week 16, n/N participants) was 0/10 and the Gastrointestinal complaints (Week 16, n/N participants) was 0/10. For the same compound, the Gout (Week 16, n/N participants) was 0/10, the Headache (Week 16, n/N participants) was 10/10 and the Insomnia (Week 16, n/N participants) was 0/10. For the same compound, the Irregular heartbeat/tachycardia (Week 16, n/N participants) was 1/10, the Muscle cramps (Week 16, n/N participants) was 1/10 and the Myalgia (Week 16, n/N participants) was 0/10. For the same compound, the Nightmares (Week 16, n/N participants) was 0/10, the Pedal edema (Week 16, n/N participants) was 0/10 and the Rebound hypertension (Week 16, n/N participants) was 2/10. For the same compound, the Syncope (Week 16, n/N participants) was 0/10.
